Results: patent US20070225351A1, “Methods and compositions for controlling body weight and appetite” (priority 2002, published 2007)
Like-named read-outs stand apart in the source and are kept apart here.

How the values were obtained:
[1] = Effect on weight gain in male DIO rats; assay type: in vivo, rat
Procedure: Male DIO rats, weighing approximately 200 g each were housed singly in plastic cages with wood litter and free access to food and water in a vivarium maintained under a 12 hour light/dark cycle at 21±3°. After an acclimatization period of 1 week, the studies were initiated. During the study period, access to food and water was restricted for 3 hours per day (1000 to 1300 hrs). On day 0, the amount of food and water consumed was measured in all rats in the absence of any treatment. […] A cannabinoid receptor blocker, termed AM251, and an enantiomer of fenfluramine, termed d-FEN1, both of which are known to regulate the melanocortin pathways in animals, were also administered for comparison purposes. Test compounds or vehicle were then orally administered in a volume of 5 mL/kg 60 minutes before access to food and water (0900 hrs). Body weight was measured prior to and 18 hours after administration of the various compounds.

[2] = Toxicokinetic evaluation in rats; details: rat, in vivo
Procedure: For toxicokinetic evaluation, all animals were observed twice daily for mortality and moribundity. Blood samples were collected from three animals/sex/group at 0 (pre-dose), 1, 2, 4, 8 and 24 hours after dose administration on study days 0 and 87. All toxicokinetic animals were euthanized and discarded following the final blood collection (study day 88).

[3] = in vivo; assay type: in vivo; details: both sexes, beagle, dog, in vivo, po
Procedure: Eighteen male and eighteen female beagle dogs were received from Ridglan Farms, Mt. Horeb, Wis. […] Each group consisted of four males and four females. All animals/sex/group were scheduled for the primary necropsy at the end of the 13-week treatment period.
The animals were observed twice daily for mortality and moribundity. Clinical examinations were performed daily at the time of dosing and approximately 1-2 and approximately 3 hours following dose administration. Detailed physical examinations were performed weekly. Clinical pathology evaluations (hematology, serum chemistry and urinalysis) were performed prior to the initiation of dose administration (study week-1) and prior to the scheduled necropsy (study week 13). Individual body weights were recorded weekly, beginning approximately two weeks prior to test article administration (study week-2). Mean body weights and mean body weight changes were calculated for each corresponding interval. Final body weights (fasted) were recorded prior to the scheduled necropsy. […] Gross lesions were also examined from the 2.0 and 6.0 mg/kg/day groups.

[4] = female, Crl:CD(SD)IGS BR (Sprague-Dawley), po, 60 mg/kg/day
[5] = female, Crl:CD(SD)IGS BR, po, 10 mg/kg/day
[6] = female, Crl:CD(SD)IGS BR, po, 25 mg/kg/day
[7] = male, Crl:CD(SD)IGS BR, po, 10 mg/kg/day
[8] = male, Crl:CD(SD)IGS BR, po, 25 mg/kg/day
[9] = male, Crl:CD(SD)IGS BR, po, 60 mg/kg/day

## Clc1ccc([C@]23CNCC2C3)cc1Cl (single isomer, unassigned; (+)) [(+)-1-(3,4-dichlorophenyl)-3-azabicyclo[3.1.0]hexane]
[1]; oral 2, 4, 6, 20 and 40 mg/kg, 18 hours after administration
  body weight gain compared to vehicle: dose-dependently suppressed this body weight gain
[1]; oral doses of 20 and 40 mg/kg, 18 hours
  effect on body weight compared with AM251 or d-FEN1: significantly more effective than either AM251 or d-FEN1
[2]; Crl:CD(SD)IGS BR (Sprague-Dawley), male rats, 10 mg/kg/day oral, Day 87, read-out: AUC0-24 h
  AUC(0-t): 8130 ng·h/mL
[2]; Crl:CD(SD)IGS BR, female rats, 10 mg/kg/day oral, Day 87, read-out: AUC0-24 h
  AUC(0-t): 14400 ng·h/mL
[2]; [4]
  AUC0-24 h: 88137 ng·h/mL
  Cmax: 6600 ng/mL
  Tmax: 2 h
[2]; female, Crl:CD(SD)IGS BR (Sprague-Dawley), po, 60 mg/kg/day, AUC0-24 h
  AUC(0-t): 54400 ng·h/mL
[2]; female, Crl:CD(SD)IGS BR, po, 10 mg/kg/day, AUC0-24 h
  AUC(0-t): 10900 ng·h/mL
[2]; [5]
  Cmax: 1390 ng/mL
  Tmax: 1 h
[2]; [6]
  AUC0-24 h: 30205 ng·h/mL
  Cmax: 2810 ng/mL
  Tmax: 2 h
[2]; female, Crl:CD(SD)IGS BR, po, 25 mg/kg/day, AUC0-24 h
  AUC(0-t): 31000 ng·h/mL
[2]; male, Crl:CD(SD)IGS BR (Sprague-Dawley), po, 10 mg/kg/day, AUC0-24 h
  AUC(0-t): 5940 ng·h/mL
[2]; [7]
  Cmax: 863 ng/mL
  Tmax: 2 h
[2]; [8]
  AUC0-24 h: 21975 ng·h/mL
  Cmax: 2360 ng/mL
  Tmax: 2 h
[2]; male, Crl:CD(SD)IGS BR, po, 25 mg/kg/day, AUC0-24 h
  AUC(0-t): 17400 ng·h/mL
[2]; [9]
  AUC0-24 h: 60093 ng·h/mL
  Cmax: 3680 ng/mL
  Tmax: 1 h
[2]; male, Crl:CD(SD)IGS BR, po, 60 mg/kg/day, AUC0-24 h
  AUC(0-t): 36300 ng·h/mL
[3]
  NOAEL at 13 weeks: 6 mg/kg/day
